Assay [1] has as its system human OA knee cartilage explants. As to the kind of experiment: Gene expression in OA cartilage explants. It is filed as cell-based. Conditions: n = 7 donors, 24 h, normalized to 28S rRNA, relative to control; BMP7 1 nM (Figure 6A). On the procedure:
To determine whether peptide p[63−82] has the potency to alter chondrocyte behavior in cartilage tissue, rather than isolated HACs, cartilage biopsies from OA knees were cultured in the presence of peptide p[63−82], alongside its scrambled version and full-length BMP7.
Figure 6 Peptide p[63−82] activity on OA knee joint tissues Human OA knee joint tissues were cultured for 24 h in the presence of BMP7, peptide p[63−82], or the scrambled version of peptide p[63−82] and compared to control conditions. (A) Cartilage tissues (n = 7 individual donors) were exposed to shown conditions and analyzed for COL2A1, COL10A1, and COX-2 mRNA expression by quantitative real-time PCR (normalized for 28S rRNA expression and relative to control conditions). (B) GAG release in medium from cartilage tissues (n = 5 individual donors) was determined, and data were calculated relative to the control condition. (C) PGE2 levels in culture supernatant from synovium (n = 5 donors). (D) PGE2 levels in culture supernatant from cartilage tissues from (B) (n = 5 donors). (E) PGE2 levels in culture supernatant from IPFP (n = 5 donors). (F) PGE2 levels in culture supernatant from the meniscus. Synovium, IPFP, and meniscus tissues were from the same 5 donors as the cartilage tissues in (B) and (C). PGE2 levels in conditions were calculated relative to controls for each donor. […] Statistical differences (unpaired two-tailed Student’s t test) were calculated to control condition: ∗p < 0.05, ∗∗p < 0.01, and ∗∗∗p < 0.001.
Cartilage was obtained from total knee arthroplasty of end-stage (K&L grades 3−4) OA patients and from resected knee cartilage from cartilage repair procedures of non-OA patients. […] The bioluminescent readout was performed by lysing cells in Passive Lysis Buffer (Promega) and measuring luciferase activity using the Berthold TriStar^2 LB 942 Modular Multimode Microplate Reader using the Luciferase Assay System for firefly luciferase (BRE and CAGA12) (Promega) and the Gaussia Luciferase Kit (New England Biolabs). […]

In the next assay the test system is OA-HACs. As to the kind of experiment: Duration of chondrocyte phenotype modulation, single versus multiple peptide addition, 10-day follow-up. It is filed as cell-based, human. The settings on record: 100 nM; for COL10A1 gene expression, continuous exposure / inhibition of MMP13 and COX-2 expression, continuous exposure / COL2A1 mRNA expression, continuous exposure / inhibition of COL10A1, MMP13, and COX-2 gene expression after single dose, up to and including day / expression of COL10A1, MMP13, and COX-2 at day 10, single dose / timing of action on COL2A1 after single dose: OA-HAC pool (n = 3 donors); for COL10A1 gene expression, continuous exposure / inhibition of MMP13 and COX-2 expression, continuous exposure: multiple addition; for COL10A1 gene expression, continuous exposure: 10 days (Figure 4B); for inhibition of MMP13 and COX-2 expression, continuous exposure: 10 days (Figures 4C, 4D); for COL2A1 mRNA expression, continuous exposure: peptide added every other day (multiple), 10 days (Figure 4A); for inhibition of COL10A1, MMP13, and COX-2 gene expression after single dose, up to and including day: single dose at start, sampled every 2 days; for timing of action on COL2A1 after single dose: compared with timing for COL10A1, MMP13, COX-2; for detectable changes in chondrocyte gene expression phenotype after a single exposure: OA-HAC pool. On the procedure:
The duration of chondrocyte phenotypic change induced by candidate peptides p[63−82] and p[113−132] was determined by exposing OA-HACs to a single dose of peptide or continuously keeping the peptides present during OA-HAC culture. In both cases, the phenotype of the OA-HACs was analyzed every other day during a 10-day follow-up. Non-OA-HACs were used as a reference for chondrocyte phenotype status.
Figure 4 Duration of chondrocyte phenotype modulation by BMP7-derived peptides A pool of OA-HACs (n = 3 donors) was cultured in the presence or absence of 100 nM peptides p[63−82] or p[113−132] and compared to a pool of human articular chondrocytes from a non-OA source. The medium was changed every 2 days. Peptides were added at the start of the experiment and subsequently at every medium change (multiple) or only at the start of the experiment and not during every subsequent medium change (single). At days 0, 2, 4, 6, 8, and 10 in culture, samples were harvested and analyzed for the expression of the indicated mRNAs by quantitative real-time PCR (normalized for 28S rRNA expression) (A) COL2A1 mRNA expression. (B) COL10A1 mRNA expression. (C) MMP13 mRNA expression. (D) COX-2 mRNA expression. In graphs, error bars represent mean ± SEM; data are presented relative to the “control OA” condition of each time point. Statistical differences were calculated to control conditions. Error bars represent mean ± SEM, and statistical significance for peptide conditions or control non-OA versus control OA condition as determined by unpaired two-tailed Student’s t test is represented as ∗p < 0.05, ∗∗p < 0.01, and ∗∗∗p < 0.001.
For the peptide-screening and alanine-scanning experiments, cDNA was prepared using the Cells-to-Ct kit (Invitrogen) according to the manufacturer’s protocol. For the other experiments, cells or homogenized tissues (Mikro-Dismembrator; Braun Biotech International) were lysed in TRIzol (Life Technologies) and RNA isolation and cDNA synthesis were performed as described earlier.[27]^,[57] Quantitative real-time PCR was performed using Takyon qPCR Master Mix plus blue for SYBR Green (Eurogentec). A CFX96 Real-Time PCR Detection System (Bio-Rad) was used for amplification: initial denaturation 95°C for 10 min, followed by 40 cycles of amplification (denaturing 15 s at 95°C and annealing 1 min at 60°C). Data were analyzed using the standard curve method, mRNA expression was normalized to a reference gene (28S rRNA), and gene expression was calculated as fold change as compared to control conditions.

For the substance “H-SEASPAMYYLNATANFYESG-OH [scrambled p[63−82], scrambled version of peptide p[63−82], reference compound]”, the “COL2A1, COL10A1, and COX-2 mRNA expression in cartilage explants” value (shortened to “COL2A1, COL10A1”) in assay [1] is recorded as “lacked this activity”.
Regarding H-AAYYSEGESAFPLNSYMNAT-OH [p[63−82]], the “COL2A1, COL10A1” value in assay [1] was “induce COL2A1 while inhibiting COL10A1 and COX-2 expression”. Also, in the assay with OA-HACs, the “COL10A1 gene expression, continuous exposure” value is listed as “steadily decreased over time”; the “inhibition of MMP13 and COX-2 expression, continuous exposure” value is “continuously observed during the treatment period”; the “COL2A1 mRNA expression, continuous exposure” value is on record as “overtime increasing”; the “inhibition of COL10A1, MMP13, and COX-2 gene expression after single dose, up to and including day” value is given as “up to 8 day”. In addition, in the assay on OA-HACs, the “expression of COL10A1, MMP13, and COX-2 at day 10, single dose” value is on record as “indistinguishable from non-treated OA HACs”; the “timing of action on COL2A1 after single dose” value was “not detectable anymore from day 8 onward”; the “detectable changes in chondrocyte gene expression phenotype after a single exposure” value is given as “up to 8 days”.
On to “BMP7: full-length recombinant bone morphogenetic protein 7 (R&D Systems), used at 1 nM”, for which, in assay [1], the “COL2A1, COL10A1” value is recorded as “comparable”.
Turning to H-SVLYFDDSSNVILKKYRNMV-OH [p[113−132]], in the assay on OA-HACs, the “COL10A1 gene expression, continuous exposure” value is “steadily decreased over time”; the “inhibition of MMP13 and COX-2 expression, continuous exposure” value was “continuously observed during the treatment period”; the “COL2A1 mRNA expression, continuous exposure” value was “overtime increasing”; the “inhibition of COL10A1, MMP13, and COX-2 gene expression after single dose, up to and including day” value is given as “up to 8 day”. In the assay with OA-HACs, the “expression of COL10A1, MMP13, and COX-2 at day 10, single dose” value is “indistinguishable from non-treated OA HACs”; the “timing of action on COL2A1 after single dose” value is recorded as “similar”; the “detectable changes in chondrocyte gene expression phenotype after a single exposure” value is listed as “up to 8 days”.

Source of the values: PMC8022858, “Discovery of bone morphogenetic protein 7-derived peptide sequences that attenuate the human osteoarthritic chondrocyte phenotype” (Molecular Therapy. Methods & Clinical Development, 2021).
